The source of these data is PubChem BioAssay AID1259407 (Chemical Carcinogenesis Research Information System (CCRIS), 2018).

The source made the active and inactive calls. The rule behind the calls is not given here.

In the data set the test system is CCRIS mutagenicity, Ames/micronucleus/aberration tests. The experiment in a line: CCRIS mutagenicity studies.
Setting [1] is: Test System: AMES SALMONELLA TYPHIMURIUM, Strain/Indicator: TA98, Metabolic Activation: NONE, Method: STANDARD PLATE.
The mark [2] stands for this setting: Test System: AMES SALMONELLA TYPHIMURIUM, Strain/Indicator: TA100, Metabolic Activation: NONE, Method: STANDARD PLATE.
Where [3] appears, read: Test System: AMES SALMONELLA TYPHIMURIUM, Strain/Indicator: TA100, Metabolic Activation: RAT, LIVER, S-9, AROCLOR 1254, Method: STANDARD PLATE.
Setting [4] is: Test System: AMES SALMONELLA TYPHIMURIUM, Strain/Indicator: TA1535, Metabolic Activation: HAMSTER, LIVER, S-9, AROCLOR 1254, Method: STANDARD PLATE.
Where [5] appears, read: Test System: AMES SALMONELLA TYPHIMURIUM, Strain/Indicator: TA1535, Metabolic Activation: NONE, Method: STANDARD PLATE.

As for `Cc1ccc(C=O)o1`, the mutagenic call by setting is: (Test System: AMES SALMONELLA TYPHIMURIUM, Strain/Indicator: TA98, Metabolic Activation: NONE, Method: PREINCUBATION) “inactive; negative”; under setting [1], “inactive; negative”; (Test System: AMES SALMONELLA TYPHIMURIUM, Strain/Indicator: TA98, Metabolic Activation: RAT, LIVER, S-9, AROCLOR 1254, Method: PREINCUBATION) “inactive; negative”; (Test System: AMES SALMONELLA TYPHIMURIUM, Strain/Indicator: TA98, Metabolic Activation: S-9, Method: STANDARD PLATE) “inactive; negative”; (Test System: AMES SALMONELLA TYPHIMURIUM, Strain/Indicator: TA100, Metabolic Activation: NONE, Method: PREINCUBATION) “inactive; negative”; under setting [2], “inactive; negative”. Also, the mutagenic call is “inactive; negative” (Test System: AMES SALMONELLA TYPHIMURIUM, Strain/Indicator: TA100, Metabolic Activation: RAT, LIVER, S-9, AROCLOR 1254, Method: PREINCUBATION); “inactive; negative” (Test System: AMES SALMONELLA TYPHIMURIUM, Strain/Indicator: TA100, Metabolic Activation: S-9, Method: STANDARD PLATE); “inactive; negative” (Test System: AMES SALMONELLA TYPHIMURIUM, Strain/Indicator: TA102, Metabolic Activation: NONE, Method: PREINCUBATION); “inactive; negative” (Test System: AMES SALMONELLA TYPHIMURIUM, Strain/Indicator: TA102, Metabolic Activation: RAT, LIVER, S-9, AROCLOR 1254, Method: PREINCUBATION).
Turning to `CC[N+](CC)=c1ccc2nc3c(cc(N)c4ccccc43)oc-2c1`, the mutagenic call is, setting by setting: under setting [3], “active; positive”; (Test System: AMES SALMONELLA TYPHIMURIUM, Strain/Indicator: TA1538, Metabolic Activation: NONE, Method: STANDARD PLATE) “inactive; negative”; (Test System: AMES SALMONELLA TYPHIMURIUM, Strain/Indicator: TA1538, Metabolic Activation: RAT, LIVER, S-9, AROCLOR 1254, Method: STANDARD PLATE) “active; positive”.
For `Fc1ccc2cccnc2c1F`, under “Test System: AMES SALMONELLA TYPHIMURIUM, Strain/Indicator: TA100, Metabolic Activation: RAT LIVER S-9, PHENOBARBITAL AND 5,6-BENZOFLAVONE, Method: PREINCUBATION”, the mutagenic call is “active; positive”.
For `CN(Cc1ccc(C#N)cc1)N=O`, the mutagenic call is “active; positive” under setting [4] and “inactive; negative” under setting [5].
Turning to `O[C@H]1C=Cc2c(cc3c4c(cc5ccccc53)-c3ccccc3-c24)[C@@H]1O`, the mutagenic call by setting is: (Test System: AMES SALMONELLA TYPHIMURIUM, Strain/Indicator: TA100, Metabolic Activation: MOUSE, LIVER, S-9, 3-METHYLCHOLANTHRENE, Method: STANDARD PLATE) “active; positive”; (Test System: AMES SALMONELLA TYPHIMURIUM, Strain/Indicator: TA100, Metabolic Activation: RAT, LIVER, S-9, 3-METHYLCHOLANTHRENE, Method: STANDARD PLATE) “active; positive”.
In the case of `CC(C)CCON=O`, the mutagenic call reads like this: (End Point: IN VITRO CHROMOSOMAL ABERRATIONS, Test System: CHINESE HAMSTER OVARY CELLS, Metabolic Activation: NONE) “active; positive”; (End Point: IN VITRO CHROMOSOMAL ABERRATIONS, Test System: CHINESE HAMSTER OVARY CELLS, Metabolic Activation: RAT, LIVER, S-9, AROCLOR 1254) “inactive; negative”; (Test System: AMES SALMONELLA TYPHIMURIUM, Strain/Indicator: TA98, Metabolic Activation: HAMSTER, LIVER, S-9, AROCLOR 1254, Method: STANDARD PLATE) “inactive; negative”; under setting [1], “inactive; negative”; (Test System: AMES SALMONELLA TYPHIMURIUM, Strain/Indicator: TA98, Metabolic Activation: RAT, LIVER, S-9, AROCLOR 1254, Method: STANDARD PLATE) “inactive; negative”; (Test System: AMES SALMONELLA TYPHIMURIUM, Strain/Indicator: TA100, Metabolic Activation: HAMSTER, LIVER, S-9, AROCLOR 1254, Method: STANDARD PLATE) “inactive; negative”. The mutagenic call reads like this: under setting [2], “inactive; negative”; under setting [3], “inactive; negative”; under setting [4], “active; positive”; under setting [5], “active; positive”; (Test System: AMES SALMONELLA TYPHIMURIUM, Strain/Indicator: TA1535, Metabolic Activation: RAT, LIVER, S-9, AROCLOR 1254, Method: STANDARD PLATE) “active; positive”; (Test System: AMES SALMONELLA TYPHIMURIUM, Strain/Indicator: TA1537, Metabolic Activation: HAMSTER, LIVER, S-9, AROCLOR 1254, Method: STANDARD PLATE) “inactive; negative”. In addition, the mutagenic call is, setting by setting: (Test System: AMES SALMONELLA TYPHIMURIUM, Strain/Indicator: TA1537, Metabolic Activation: NONE, Method: STANDARD PLATE) “inactive; negative”; (Test System: AMES SALMONELLA TYPHIMURIUM, Strain/Indicator: TA1537, Metabolic Activation: RAT, LIVER, S-9, AROCLOR 1254, Method: STANDARD PLATE) “inactive; negative”; (Test System: MOUSE LYMPHOMA, Strain/Indicator: L5178Y (TK+/TK-), Metabolic Activation: NONE, Method: SUSPENSION/PLATE) “active; positive”; (Test System: MOUSE LYMPHOMA, Strain/Indicator: L5178Y (TK+/TK-), Metabolic Activation: RAT, LIVER, S-9, AROCLOR 1254, Method: SUSPENSION/PLATE) “active; positive”.
